“And” between values parts separate entries of the source, which are not always exact repeats. Equal values may be shown once. Read-outs that look alike come from different tables or passages of the source. Some results are limits rather than exact numbers.

Our source for the CC50, EC50 and EC90 values is article PMC10788925 (Journal of Medicinal Chemistry, 2023).

Data set [1] in a line: in vitro. As to conditions: human.
Data set [2] concerns HEV-3 replicon p6-Gluc. In words: microbe, parasite or virus in culture. It counts as cell-based, Hepatitis E virus.
Where [3] appears, read: Hepatitis E virus, HepG2, 24 h, read-out: HEV, EC90 (24 h, nM).
Setting [4] is: Hepatitis E virus, HepG2, 48 h, read-out: HEV, EC90 (48 h, nM)2.

A word on the EC50: it is the concentration at which the effect is half-maximal. Broadly, the EC90 is the point of the concentration-response curve where the effect stands at 90%. Turning to `COC(=O)[C@H]1[C@@H](O)[C@@]2(O)c3c(OC)cc(OC)cc3O[C@@]2(c2ccc(Cl)cc2)[C@@H]1c1ccccc1` (racemic) [9a, (±)-Methyl (1R,2R,3S,3aR,8bS)-3a-(4-chlorophenyl)-1,8b-dihydroxy-6,8-dimethoxy-3-phenyl-2,3,3a,8b-tetrahydro-1H-cyclopenta[b]benzofuran-2-carboxylate], in data set [1], the CC50 at 24 h turned out to be 513 nM and the CC50 at 48 h turned out to be 38.8 nM. In data set [2] (Hepatitis E virus, HepG2, 24 h), this molecule had an EC50 of 19.4 nM and an EC90 of 140 nM. In addition, in data set [2] (Hepatitis E virus, HepG2, 48 h), the EC50 was 16.8 nM and the EC90 came to 105 nM.

With `COC(=O)[C@H]1[C@@H](O)[C@@]2(O)c3c(Cl)cc(Cl)cc3O[C@@]2(c2ccc(Br)cc2)[C@@H]1c1ccccc1` (racemic) [9db, (±)-Methyl (1R,2R,3S,3aR,8bS)-3a-(4-bromophenyl)-6,8-dichloro-1,8b-dihydroxy-3-phenyl-2,3,3a,8b-tetrahydro-1H-cyclopenta[b]benzofuran-2-carboxylate], in data set [1], the CC50 at 24 h is 389 nM and the CC50 at 48 h was 48 nM. For the same molecule, in data set [2] (Hepatitis E virus, HepG2, 24 h), it took 29.6 nM to reach a half-maximal effect (EC50) and it took 128 nM to reach the 90% level (EC90). Further, in data set [2] (Hepatitis E virus, HepG2, 48 h), the response was half-maximal at 14.7 nM (EC50) and the EC90 is 124 nM.

In data set [1], `COC(=O)[C@H]1[C@@H](O)[C@@]2(O)c3c(Br)cc(Br)cc3O[C@@]2(c2ccc(OC)cc2)[C@@H]1c1ccccc1` (racemic) [9e, (±)-Methyl (1R,2R,3S,3aR,8bS)-6,8-dibromo-1,8b-dihydroxy-3a-(4-methoxyphenyl)-3-phenyl-2,3,3a,8b-tetrahydro-1H-cyclopenta[b]benzofuran-2-carboxylate] gave a CC50 at 24 h of 766 nM and a CC50 at 48 h of 90.2 nM. In data set [2] (Hepatitis E virus, HepG2, 24 h), this molecule gave an EC50 of 36.1 nM and an EC90 of 362 nM. Besides, in data set [2] (Hepatitis E virus, HepG2, 48 h), the EC50 turned out to be 33.2 nM and it took 282 nM to reach the 90% level (EC90).

In data set [1], `COC(=O)[C@H]1[C@@H](O)[C@@]2(O)c3c(Cl)cc(Br)cc3O[C@@]2(c2ccc(OC)cc2)[C@@H]1c1ccccc1` (racemic) [9f, (±)-Methyl (1R,2R,3S,3aR,8bS)-6-bromo-8-chloro-1,8b-dihydroxy-3a-(4-methoxyphenyl)-3-phenyl-2,3,3a,8b-tetrahydro-1H-cyclopenta[b]benzofuran-2-carboxylate] displayed a CC50 at 24 h of 663 nM and a CC50 at 48 h of 61 nM. Moreover, in data set [2] (Hepatitis E virus, HepG2, 24 h), the EC50 is 9.9 nM and the EC90 turned out to be 583 nM. In data set [2] (Hepatitis E virus, HepG2, 48 h), the EC50 was 14.9 nM and the EC90 stood at 454 nM.

For `COC(=O)[C@H]1[C@@H](O)[C@@]2(O)c3c(Br)cc(Cl)cc3O[C@@]2(c2ccc(OC)cc2)[C@@H]1c1ccccc1` (racemic) [9g, (±)-Methyl (1R,2R,3S,3aR,8bS)-8-bromo-6-chloro-1,8b-dihydroxy-3a-(4-methoxyphenyl)-3-phenyl-2,3,3a,8b-tetrahydro-1H-cyclopenta[b]benzofuran-2-carboxylate], in data set [1], the CC50 at 24 h is 812 nM and the CC50 at 48 h was 101 nM. Further, in data set [2] (Hepatitis E virus, HepG2, 24 h), the EC50 came to 52.1 nM and the EC90 was found to be 482 nM. Moreover, in data set [2] (Hepatitis E virus, HepG2, 48 h), the EC50 is 37.9 nM and the EC90 was determined as 365 nM.

`COC(=O)[C@H]1[C@@H](O)[C@@]2(O)c3c(F)cc(OC)cc3O[C@@]2(c2ccc(OC)cc2)[C@@H]1c1ccccc1` (racemic) [9h, (±)-Methyl (1R,2R,3S,3aR,8bS)-8-fluoro-1,8b-dihydroxy-6-methoxy-3a-(4-methoxyphenyl)-3-phenyl-2,3,3a,8b-tetrahydro-1H-cyclopenta[b]benzofuran-2-carboxylate]: in data set [1], the CC50 is above 1000 nM and the CC50 at 48 h was 163 nM. In data set [2] (Hepatitis E virus, HepG2, 24 h), this molecule returned an EC50 of 61 nM and an EC90 above 1000 nM. In data set [2] (Hepatitis E virus, HepG2, 48 h), the EC50 turned out to be 64.3 nM and the 90% effect level (EC90) was put at 634 nM.

`COC(=O)[C@H]1[C@@H](O)[C@@]2(O)c3c(OC)cc(F)cc3O[C@@]2(c2ccc(OC)cc2)[C@@H]1c1ccccc1` (racemic) [9i, (±)-Methyl (1R,2R,3S,3aR,8bS)-6-fluoro-1,8b-dihydroxy-8-methoxy-3a-(4-methoxyphenyl)-3-phenyl-2,3,3a,8b-tetrahydro-1H-cyclopenta[b]benzofuran-2-carboxylate] gave a CC50 in data set [1] above 1000 nM. The molecule also showed a CC50 at 48 h in data set [1] of 904 nM. The half-maximal effective concentration (EC50) in data set [2] (Hepatitis E virus, HepG2, 24 h) was above 1000 nM; in data set [2] (Hepatitis E virus, HepG2, 48 h), 732 nM. Besides, the EC90 is above 1000 nM in data set [2] (Hepatitis E virus, HepG2, 24 h); above 1000 nM in data set [2] (setting [3]); above 1000 nM in data set [2] (Hepatitis E virus, HepG2, 48 h); above 1000 nM in data set [2] (setting [4]).

With `COC(=O)[C@H]1[C@@H](O)[C@@]2(O)c3c(Cl)cc(OC)cc3O[C@@]2(c2ccc(OC)cc2)[C@@H]1c1ccccc1` (racemic) [9j, (±)-Methyl (1R,2R,3S,3aR,8bS)-8-chloro-1,8b-dihydroxy-6-methoxy-3a-(4-methoxyphenyl)-3-phenyl-2,3,3a,8b-tetrahydro-1H-cyclopenta[b]benzofuran-2-carboxylate], in data set [1], the CC50 at 24 h came out at 832 nM and the CC50 at 48 h stood at 148 nM. In addition, in data set [2] (Hepatitis E virus, HepG2, 24 h), a half-maximal effect (EC50) was put at 92.6 nM and the EC90 turned out to be 577 nM. Moreover, in data set [2] (Hepatitis E virus, HepG2, 48 h), the EC50 is 75.7 nM and the 90% effect level (EC90) was put at 394 nM.

In data set [1], `COC(=O)[C@H]1[C@@H](O)[C@@]2(O)c3c(OC)cc(Cl)cc3O[C@@]2(c2ccc(OC)cc2)[C@@H]1c1ccccc1` (racemic) [9k, (±)-Methyl (1R,2R,3S,3aR,8bS)-6-chloro-1,8b-dihydroxy-8-methoxy-3a-(4-methoxyphenyl)-3-phenyl-2,3,3a,8b-tetrahydro-1H-cyclopenta[b]benzofuran-2-carboxylate] gave a CC50 at 24 h of 443 nM and a CC50 at 48 h of 19.9 nM. In data set [2] (Hepatitis E virus, HepG2, 24 h), a half-maximal response (EC50) required 5.4 nM and the EC90 turned out to be 45.1 nM. In data set [2] (Hepatitis E virus, HepG2, 48 h), this molecule showed a concentration for a half-maximal effect (EC50) of 2.5 nM and an EC90 of 45.5 nM.

In data set [1], `COC(=O)[C@H]1[C@@H](O)[C@@]2(O)c3c(Br)cc(OC)cc3O[C@@]2(c2ccc(OC)cc2)[C@@H]1c1ccccc1` (racemic) [9l, (±)-Methyl (1R,2R,3S,3aR,8bS)-8-bromo-1,8b-dihydroxy-6-methoxy-3a-(4-methoxyphenyl)-3-phenyl-2,3,3a,8b-tetrahydro-1H-cyclopenta[b]benzofuran-2-carboxylate] returned a CC50 at 24 h of 787 nM and a CC50 at 48 h of 114 nM. Besides, in data set [2] (Hepatitis E virus, HepG2, 24 h), the EC50 stood at 83.6 nM and the EC90 worked out at 343 nM. In data set [2] (Hepatitis E virus, HepG2, 48 h), the EC50 came to 44.7 nM and the 90% effect level (EC90) was put at 305 nM.

Regarding `COCOc1cc(F)c2c(c1)O[C@@]1(c3ccc(OC)cc3)[C@H](c3ccccc3)[C@@H](C(=O)OC)[C@@H](O)[C@@]21O` (racemic) [9na, (±)-Methyl (1R,2R,3S,3aR,8bS)-8-fluoro-1,8b-dihydroxy-6-(methoxymethoxy)-3a-(4-methoxyphenyl)-3-phenyl-2,3,3a,8b-tetrahydro-1H-cyclopenta[b]benzofuran-2-carboxylate], in data set [1], the CC50 at 24 h turned out to be 912 nM and the CC50 at 48 h was 236 nM. In data set [2] (Hepatitis E virus, HepG2, 24 h), this molecule gave an EC50 of 202 nM and an EC90 above 1000 nM. For the same molecule, in data set [2] (Hepatitis E virus, HepG2, 48 h), a half-maximal response (EC50) required 146 nM and the 90% effect level (EC90) was put at 873 nM.

Turning to `COCOc1cc(F)c2c(c1)O[C@@]1(c3ccc(Br)cc3)[C@H](c3ccccc3)[C@@H](C(=O)OC)[C@@H](O)[C@@]21O` (racemic) [9nb, (±)-Methyl (1R,2R,3S,3aR,8bS)-3a-(4-bromophenyl)-8-fluoro-1,8b-dihydroxy-6-(methoxymethoxy)-3-phenyl-2,3,3a,8b-tetrahydro-1H-cyclopenta[b]benzofuran-2-carboxylate], in data set [1], the CC50 at 24 h is 727 nM and the CC50 at 48 h worked out at 113 nM. Moreover, in data set [2] (Hepatitis E virus, HepG2, 24 h), the EC50 was 86.9 nM and the EC90 stood at 345 nM. In data set [2] (Hepatitis E virus, HepG2, 48 h), this molecule displayed an EC50 of 63.2 nM and a concentration for an effect of 90% (EC90) of 298 nM.

In the case of `COC(=O)[C@H]1[C@@H](O)[C@@]2(O)c3c(OC)cc(OC)cc3O[C@@]2(c2ccc(F)cc2)[C@@H]1c1ccccc1` (racemic) [11ba, (±)-Methyl (1R,2R,3S,3aR,8bS)-3a-(4-fluorophenyl)-1,8b-dihydroxy-6,8-dimethoxy-3-phenyl-2,3,3a,8b-tetrahydro-1H-cyclopenta[b]benzofuran-2-carboxylate], the CC50 in data set [1] is above 1000 nM. This molecule also yielded a CC50 at 48 h in data set [1] of 421 nM. Moreover, the EC50 in data set [2] (Hepatitis E virus, HepG2, 24 h) is 338 nM; in data set [2] (Hepatitis E virus, HepG2, 48 h), 334 nM. The EC90 in data set [2] (Hepatitis E virus, HepG2, 24 h) was above 1000 nM; in data set [2] (setting [3]) it was above 1000 nM; in data set [2] (Hepatitis E virus, HepG2, 48 h), above 1000 nM; in data set [2] (setting [4]), above 1000 nM.

As for `COC(=O)[C@H]1[C@@H](O)[C@@]2(O)c3c(OC)cc(OC)cc3O[C@@]2(c2ccc(Br)cc2)[C@@H]1c1ccccc1` (racemic) [11bb, (±)-Methyl (1R,2R,3S,3aR,8bS)-3a-(4-bromophenyl)-1,8b-dihydroxy-6,8-dimethoxy-3-phenyl-2,3,3a,8b-tetrahydro-1H-cyclopenta[b]benzofuran-2-carboxylate], in data set [1], the CC50 at 24 h turned out to be 420 nM and the CC50 at 48 h is 27.1 nM. In data set [2] (Hepatitis E virus, HepG2, 24 h), this molecule returned an EC50 of 7.3 nM and an EC90 of 158 nM. In data set [2] (Hepatitis E virus, HepG2, 48 h), this molecule gave an EC50 of 9.4 nM and an EC90 of 91.3 nM.

As to “(±)-(1R,2R,3S,3aR,8bS)-1,8b-Dihydroxy-N,6,8-trimethoxy-3a-(4-methoxyphenyl)-3-phenyl-2,3,3a,8b-tetrahydro-1H-cyclopenta[b]benzofuran-2-carboxamide [(±)-CR-31-B (rac-1c), reference compound]”, in data set [2] (read-out: EC50), the EC50 was 6.1 nM and 3.7 nM. Also, the EC90 in data set [2] (read-out: EC90) is 27.3 nM and 29 nM.

“(±)-(1R,2R,3S,3aR,8bS)-3a-(4-chlorophenyl)-1,8b-dihydroxy-N,6,8-trimethoxy-3-phenyl-2,3,3a,8b-tetrahydro-1H-cyclopenta[b]benzofuran-2-carboxamide [14ab]”: the EC50 in data set [2] (read-out: EC50) is 2.8 nM and 2.3 nM. Moreover, in data set [2] (read-out: EC90), the EC90 is 18.2 nM and 23.8 nM.

Consider “(±)-(1R,2R,3S,3aR,8bS)-3a-(4-fluorophenyl)-1,8b-dihydroxy-N,6,8-trimethoxy-3-phenyl-2,3,3a,8b-tetrahydro-1H-cyclopenta[b]benzofuran-2-carboxamide [14bab]”, for which the EC50 in data set [2] (read-out: EC50) was 53.7 nM and 52.9 nM. Further, in data set [2] (read-out: EC90), the EC90 is 338 nM and 670 nM.

For “(±)-(1R,2R,3S,3aR,8bS)-8-Bromo-6-chloro-1,8b-dihydroxy-N-methoxy-3a-(4-methoxyphenyl)-3-phenyl-2,3,3a,8b-tetrahydro-1H-cyclopenta[b]benzofuran-2-carboxamide [14g]”, the EC50 in data set [2] (read-out: EC50) was 4.1 nM and 5.5 nM.
